According to patent US20080187608A1, “ENRICHED FRACTIONS FROM CLARY SAGE FOR THE TREATMENT OF CANCER, CARDIOVASCULAR AND INFLAMMATORY DISEASES” (SAVIPU PHARMACEUTICALS, priority 2007, published 2008):

Assays:
[1] = Oxygen Radical Absorbance Capacity (ORAC) assay
Text: Antioxidant Capability of SP001P and SP 2010. The Oxygen Radical Absorbance Capacity (ORAC) assay depends on the free radical damage to a fluorescent probe, such as fluorescein, to result in a downward change of fluorescent intensity. The presence of antioxidants results in an inhibition in the free radical damage to the fluorescent compound. Reactions containing antioxidants and blanks (solvent) are run in parallel using equivalent amounts of a ROS generator and fluorescent probe. The area under the curve (AUC) from the experimental sample is calculated. Results from different samples are compared with Trolox®, (6-hydroxy-2,5,7,8-tetrametmethylchroman-2-carboxylic acid) a water soluble vitamin E analog and ORAC results are expressed as Trolox® equivalents. ORAC values are calculated using the regression equation between Trolox concentration and the net AUC and are expressed as micromole Trolox equivalents per gram of sample. SP001P and SP 2010 are potent antioxidants with values of 357 and 441 micromole Trolox equivalents per gram, respectively.

[2] = system: NFκB transcription factor in A549/NFκB-luc reporter cell line; test: NF-κB transactivation after rhTNFα in A549/NFκB-luc reporter cell line; type: cell-based; conditions: rhTNFα activation
Text: (§1) Inhibition of activation of NF-kB by SP001P and SP 2010. We evaluated the effects of SP001P and SP 2010 on the activity of NFκB transcription factor after activation with rhTNFα in a reporter cell line A549/NFκB-luc designed by Panomics according to the manufacturer's instructions. […] It is interesting to note that although SP001P has only 20% of SP 2010 yet it produced a dose response curve that was very similar with SP 2010 (FIG. 4A). […] We studied the effects of SP 2010 on TNF-α-dependent activation of NF-κB binding to KB site in nuclear extracts of HeLa cells. To measure the binding of the activated NF-κB to its consensus KB sequence, nuclear extracts from HeLa cells treated with SP 2010 and stimulated with TNFα were prepared by the Panomics Nuclear Extraction kit. Nuclear extracts were diluted to 2 μg/μl and 10 μl of the extract was used to quantify transcription factor activation, specifically that of NF-κB p50 (ELISA, Panomics).

[3] = system: NAD[P]H:(quinone-acceptor) oxidoreductase (QR) in mouse hepatoma Hepa 1c1c7 cells; test: Activation of quinone reductase (QR) in Hepa 1c1c7 cells, menadione-coupled tetrazolium reduction; type: cell-based
Protocol: Activation of Quinone reductase (NAD[P]H:(quinone-acceptor) oxidoreductase (QR). We studied the effects of SP001P and SP 2010 on the activation of QR, a phase 2 enzyme in mouse hepatoma cells Hepa 1c1c7 (ATCC) at lower concentrations. QR protects cells against quinones and highly reactive semiquinones by catalyzing an obligate two-electron reduction of quinones to hydroquinones. We have developed a 96-well plate assay to assess QR activity in these cell lines. QR activity was measured by a menadione-coupled reduction of tetrazolium dye as modified from Prochaska and Santamari. Cells (10^4 per well) were grown for 24 h and then exposed to serial dilutions of inducers for 24 h. Protein concentrations in a corresponding plate were determined by methylene blue staining as described earlier. SP001P and SP 2010 stimulated NAD[P]H:(quinone-acceptor) oxidoreductase (QR), a phase 2 enzyme in a dose dependent manner in mouse hepatoma Hepa 1c1c7 cells at concentrations known to inhibit B[a]P-induced transformation of RTE cells, (FIG. 2). The concentration required to double the specific activity of QR (CD value) for SP001P and SP 2010 were 24 ng/ml and 49 nM, respectively.

[4] = system: NF-κB p50 binding to KB site in HeLa cells; test: TNF-α-dependent NF-κB binding to κB site in nuclear extracts of HeLa cells (NF-κB p50 ELISA); type: cell-based; conditions: HeLa cells stimulated with TNFα
Text: as §1

Compound: Cc1coc2c1C(=O)C(=O)c1c-2ccc2c1CCCC2(C)C [SP 2010, Tanshinone IIA]
- ORAC value [1]: 441 micromole Trolox equivalents per gram
- transactivation of NF-κB [2]: dose-dependent decrease
- concentration required to double the specific activity of QR (CD value) ([3]; 24 h exposure): 49 nM
- stimulation of QR ([3]; FIG. 2): stimulated
- NF-κB binding to KB site [4]: dose-dependent decrease
